Assay results as given in the CheMixHub viscosity set.
“And” between values parts separate entries of the source, which are not always exact repeats. Equal entries are not always repeated.

Assay: xn = mol fraction of the nth substance listed

CCCCCCCCCCCC(=O)OCC + CCCCCO
viscosity [mPa·s], 101.33 kPa
Details	x2 = 0.1	x2 = 0.2	x2 = 0.2999	x2 = 0.4	x2 = 0.4999	x2 = 0.6	x2 = 0.7	x2 = 0.8	x2 = 0.9
293.15 K	3.228	3.128	3.064	3.018	2.992	2.994	3.044	3.147	3.437
298.15 K	2.884	2.802	2.741	2.699	2.68	2.667	2.706	2.783	3.024
303.15 K	2.603	2.515	2.46	2.424	2.387	2.383	2.403	2.479	2.663
308.15 K	2.349	2.275	2.238	2.173	2.141	2.131	2.142	2.201	2.351
313.15 K	2.12	2.065	2.014	1.954	1.926	1.913	1.919	1.963	2.074
318.15 K	1.948	1.888	1.852	1.801	1.765	1.745	1.735	1.776	1.867
323.15 K	1.759	1.699	1.658	1.601	1.569	1.546	1.553	1.584	1.652

CCCN(CCC)CCC + CCC(=O)O
viscosity [mPa·s], 101 kPa
Details	x2 = 0.1	x2 = 0.4	x2 = 0.5	x2 = 0.6	x2 = 0.7	x2 = 0.75	x2 = 0.775	x2 = 0.8	x2 = 0.9
293.15 K	0.734	4.43	5.62	5.97	13.95	20.55	23.47	23.75	8.57
298.15 K	0.664	3.85	5.12	5.22	11.2	16.25	18.67	18.96	7.5
303.15 K	0.589	3.5	4.35	4.5	9.2	13.02	15	15.59	6.47
308.15 K	0.54	3.1	3.75	3.8	7.7	10.85	12.22	12.77	5.81
313.15 K	0.51	2.8	3.62	3.35	6.52	9	10.32	10.76	5.04
318.15 K	0.499	2.45	3.03	3	5.57	7.62	8.68	8.96	4.4
323.15 K	0.464	2.22	2.75	2.67	4.82	6.46	7.44	7.72	4.05

ClCCCCl + CCCCO
viscosity [mPa·s], 101 kPa
Details	x1 = 0.0958	x1 = 0.2016	x1 = 0.3004	x1 = 0.3983	x1 = 0.5002	x1 = 0.5993	x1 = 0.6997	x1 = 0.7997	x1 = 0.9
298.15 K	2.139	1.773	1.512	1.32	1.177	1.071	0.9963	0.9461	0.9256
313.15 K	1.488	1.261	1.101	0.9831	0.8935	0.8317	0.7876	0.76	0.7528

Clc1ccc(Cl)c(Cl)c1 + Nc1cccc(Cl)c1
viscosity [mPa·s], 100 kPa
Details	x2 = 0.0895	x2 = 0.1795	x2 = 0.3125	x2 = 0.4256	x2 = 0.5169	x2 = 0.6254	x2 = 0.7145	x2 = 0.8102	x2 = 0.9012
303.15 K	1.993	2.225	2.565	2.851	3.079	3.348	3.566	3.798	4.017
308.15 K	1.825	2.033	2.337	2.593	2.797	3.037	3.231	3.437	3.631
313.15 K	1.658	1.843	2.111	2.336	2.516	2.727	2.896	3.078	3.248
318.15 K	1.493	1.653	1.887	2.083	2.237	2.419	2.566	2.722	2.867

CCN(CC)c1ccccc1 + CCC(=O)O
Details	viscosity [mPa·s]
323.15 K, 101 kPa, x2 = 0.5177	1.865

Nc1ccn([C@@H]2O[C@H](CO)C(O)C2O)c(=O)n1 (some centres not stated) + O
viscosity [mPa·s], 101.3 kPa
Details	293.15 K	298.15 K	303.15 K	308.15 K	313.15 K	318.15 K
x1 = 0.0001861	–	0.895	–	0.723	–	0.6
x1 = 0.000263	1.008	0.897	0.809	0.74	0.625	–
x1 = 0.000342	1.009	0.898	0.81	0.741	0.626	–
x1 = 0.0003829	–	0.899	–	0.727	–	0.603
x1 = 0.000448	1.012	0.901	0.813	0.744	0.628	–
x1 = 0.000537	1.014	0.903	0.815	0.746	0.63	–
x1 = 0.0005621	–	0.903	–	0.73	–	0.606
x1 = 0.000632	1.016	0.905	0.817	0.748	0.632	–
x1 = 0.000689	–	0.906	–	0.733	–	0.608
x1 = 0.000722	1.018	0.907	0.819	0.75	0.634	–
x1 = 0.0007525	–	0.907	–	0.734	–	0.609
x1 = 0.0007845	–	0.909	–	0.735	–	0.609

S + ClC(Cl)Cl
298.15 K, 101 kPa
Details	viscosity [mPa·s]
x1 = 0.00673	0.5257
x1 = 0.00998	0.5206

Cc1ccc(C(C)C)c(O)c1 + CCCCCCCC(=O)O
100 kPa, x2 = 0.579
Details	viscosity [mPa·s]
293.15 K	9.71
298.15 K	8
303.15 K	6.68
308.15 K	5.65
313.15 K	4.83
318.15 K	4.17
323.15 K	3.64

CC(N)C(=O)O (configuration not stated) + O
viscosity, 101 kPa
Details	x1 = 0.0004	x1 = 0.0007	x1 = 0.001	x1 = 0.0018	x1 = 0.0022	x1 = 0.0025	x1 = 0.0029	x1 = 0.0032	x1 = 0.0036
293.15 K	1.006 mPa·s	1.012 mPa·s	1.017 mPa·s and 1.022 mPa·s	–	–	1.038 mPa·s	1.043 mPa·s	–	–
298.15 K	0.8956 mPa·s	0.9003 mPa·s	0.9054 mPa·s	0.915 mPa·s	0.9199 mPa·s	0.9246 mPa·s	0.929 mPa·s	0.934 mPa·s	0.9389 mPa·s
303.15 K	0.8028 mPa·s	0.8077 mPa·s	0.8122 mPa·s	0.8213 mPa·s	0.8256 mPa·s	0.8299 mPa·s	0.8341 mPa·s	0.8382 mPa·s	0.8429 mPa·s
308.15 K	0.7254 mPa·s	0.7303 mPa·s	0.7349 mPa·s	0.7436 mPa·s	0.7478 mPa·s	0.7519 mPa·s	0.7558 mPa·s	0.7599 mPa·s	0.7635 mPa·s
313.15 K	0.6592 mPa·s	0.6641 mPa·s	0.6726 mPa·s	0.6767 mPa·s	0.6804 mPa·s	–	0.688 mPa·s	0.6916 mPa·s	0.6953 mPa·s

Cl.N=C(N)N + O
viscosity [mPa·s], 101.3 kPa
Details	x1 = 0.0018	x1 = 0.0045	x1 = 0.0089	x1 = 0.013	x1 = 0.0177
298.15 K	0.896	0.901	0.908	0.915	0.923
308.15 K	0.722	0.727	0.735	0.742	0.748
318.15 K	0.6	0.604	0.613	0.621	0.626

Cc1ccc(C(C)C)c(O)c1 + CCCCCCCCCCCCCC(=O)O
100 kPa, x2 = 0.25
Details	viscosity [mPa·s]
313.15 K	8.69
318.15 K	7.16
323.15 K	5.98

CCCCC(CC)COC(C)=O (configuration not stated) + CCCCCO
viscosity [mPa·s], 101.33 kPa
Details	x1 = 0.1041	x1 = 0.2073	x1 = 0.3002	x1 = 0.4211	x1 = 0.4987	x1 = 0.6	x1 = 0.7008	x1 = 0.8092	x1 = 0.9033
293.15 K	3.692	3.321	3.019	2.666	2.462	2.219	2	1.79	1.625
303.15 K	2.68	2.451	2.262	2.037	1.905	1.745	1.599	1.456	1.342
313.15 K	2.119	1.955	1.818	1.653	1.556	1.437	1.328	1.22	1.134
323.15 K	1.255	1.209	1.169	1.119	1.087	1.048	1.01	0.971	0.938
